According to the NIST ThermoML archive (doi:10.1016/j.tca.2007.01.009):

Assay: wn = mass fraction of the nth substance listed
Details: 101 kPa, Crystal, Hot wire method

[Pb] [lead] + [Cd]
thermal conductivity [W/m/K]
Details | 323.15 K | 373.15 K | 423.15 K | 473.15 K | 513.15 K
w2 = 0.033 | 38.36 | 35.94 | 30.79 | 30.37 | 27.68
w2 = 0.174 | 62.77 | 53.14 | 44.49 | 39.96 | 37.25
w2 = 0.9975 | 105.18 | 86.06 | 71.06 | 69.38 | 61.22

[Zn] [zinc] + [Sn]
thermal conductivity [W/m/K]
Details | 323.15 K | 373.1 K | 423.15 K | 463.15 K
w1 = 0.01 | 78.49 | 73.59 | 66.89 | 71.08
w1 = 0.089 | 86.39 | 81.42 | 79.04 | 75.42
